Activity calls are given as the source filed them. The calls are words filed in the database; no cut-off is given here.
Tests used:
[1] = target: T1, Serine/threonine-protein kinase TAO1 (Homo sapiens) (UniProt Q7L7X3); test: Inhibition of TAO1 Lys2 labeling site in human A-375 cells at 0.5 uM by KiNativ Profiling analysis relative to control; assay type: cell-based
T1 sequence (whole entry): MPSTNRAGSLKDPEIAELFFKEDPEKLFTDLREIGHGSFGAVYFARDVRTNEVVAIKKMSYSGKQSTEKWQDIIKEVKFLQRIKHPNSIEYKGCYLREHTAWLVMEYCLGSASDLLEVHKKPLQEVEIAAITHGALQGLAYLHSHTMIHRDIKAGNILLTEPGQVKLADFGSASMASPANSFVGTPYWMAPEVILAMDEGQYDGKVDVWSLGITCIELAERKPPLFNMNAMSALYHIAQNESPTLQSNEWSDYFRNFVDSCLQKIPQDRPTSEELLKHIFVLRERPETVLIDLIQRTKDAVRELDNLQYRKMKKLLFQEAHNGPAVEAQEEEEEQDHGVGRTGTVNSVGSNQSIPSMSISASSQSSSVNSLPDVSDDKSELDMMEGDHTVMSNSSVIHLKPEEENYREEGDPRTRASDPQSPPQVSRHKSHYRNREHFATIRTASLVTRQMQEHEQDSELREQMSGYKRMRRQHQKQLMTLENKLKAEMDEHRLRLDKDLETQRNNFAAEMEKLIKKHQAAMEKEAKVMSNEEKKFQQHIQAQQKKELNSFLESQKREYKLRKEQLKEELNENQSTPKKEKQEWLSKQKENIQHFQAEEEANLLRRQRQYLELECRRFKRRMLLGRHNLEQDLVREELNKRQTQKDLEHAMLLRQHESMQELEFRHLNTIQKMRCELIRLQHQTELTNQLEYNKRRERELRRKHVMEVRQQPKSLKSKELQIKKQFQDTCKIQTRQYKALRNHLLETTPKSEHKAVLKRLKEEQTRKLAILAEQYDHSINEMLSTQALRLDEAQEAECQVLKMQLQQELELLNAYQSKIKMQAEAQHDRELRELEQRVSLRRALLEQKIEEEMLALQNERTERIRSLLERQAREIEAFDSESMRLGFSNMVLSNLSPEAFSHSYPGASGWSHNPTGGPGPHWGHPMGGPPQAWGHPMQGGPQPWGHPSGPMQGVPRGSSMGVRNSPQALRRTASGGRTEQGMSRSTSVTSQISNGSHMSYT

[2] = target: Serine/threonine-protein kinase WNK2 (Homo sapiens) (UniProt Q9Y3S1); test: Inhibition of Wnk2 ACT labeling site in human A-375 cells at 5 uM by KiNativ Profiling analysis relative to control; assay type: cell-based
[3] = target: RAC-gamma serine/threonine-protein kinase (Homo sapiens) (UniProt Q9Y243); test: Inhibition of AKT3 ATP Loop labeling site in human A-375 cells at 5 uM by KiNativ Profiling analysis relative to control; assay type: cell-based
[4] = target: T2, Serine/threonine-protein kinase ULK1 (Homo sapiens) (UniProt O75385); test: Inhibition of ULK1 (unknown origin) at 10 uM by Ambit Kinomescan binding assay
T2 sequence (whole entry): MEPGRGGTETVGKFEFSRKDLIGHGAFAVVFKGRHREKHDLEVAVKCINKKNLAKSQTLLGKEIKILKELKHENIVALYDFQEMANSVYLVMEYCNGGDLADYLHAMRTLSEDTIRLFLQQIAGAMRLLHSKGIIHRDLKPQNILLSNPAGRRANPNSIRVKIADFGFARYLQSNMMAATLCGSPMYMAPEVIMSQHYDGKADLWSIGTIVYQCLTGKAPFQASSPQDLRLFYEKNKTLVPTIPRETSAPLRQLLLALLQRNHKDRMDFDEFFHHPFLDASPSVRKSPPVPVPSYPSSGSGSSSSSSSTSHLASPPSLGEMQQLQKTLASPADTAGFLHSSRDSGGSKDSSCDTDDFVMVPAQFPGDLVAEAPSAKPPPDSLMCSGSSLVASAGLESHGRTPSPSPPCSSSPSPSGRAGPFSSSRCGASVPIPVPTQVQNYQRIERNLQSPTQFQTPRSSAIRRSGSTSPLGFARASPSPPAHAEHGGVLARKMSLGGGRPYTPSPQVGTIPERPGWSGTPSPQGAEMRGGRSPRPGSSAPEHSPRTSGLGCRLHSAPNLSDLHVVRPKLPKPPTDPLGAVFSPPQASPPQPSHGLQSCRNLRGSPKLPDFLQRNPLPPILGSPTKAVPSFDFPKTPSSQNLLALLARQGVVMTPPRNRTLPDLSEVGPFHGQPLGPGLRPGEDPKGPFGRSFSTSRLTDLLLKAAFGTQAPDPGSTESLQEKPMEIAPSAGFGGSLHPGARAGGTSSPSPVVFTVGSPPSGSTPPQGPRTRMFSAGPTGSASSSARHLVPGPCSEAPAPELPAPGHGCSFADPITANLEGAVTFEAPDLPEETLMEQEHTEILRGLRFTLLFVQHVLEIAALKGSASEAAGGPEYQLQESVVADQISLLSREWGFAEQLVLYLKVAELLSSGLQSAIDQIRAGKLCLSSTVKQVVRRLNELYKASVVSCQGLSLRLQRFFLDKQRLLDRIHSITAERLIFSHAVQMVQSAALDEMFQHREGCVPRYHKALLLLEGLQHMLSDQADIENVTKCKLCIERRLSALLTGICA

[5] = target: Mitogen-activated protein kinase 14 (Homo sapiens, UniProt Q16539); test: Inhibition of p38 alpha in human Huh-7 cell lysate at 1 uM by KiNativ Profiling analysis relative to control; assay type: subcellular
[6] = target: T3, Mitogen-activated protein kinase kinase kinase 2 (Homo sapiens) (UniProt Q9Y2U5); test: Inhibition of MAP3K2 Lys1 labeling site in human Huh-7 cell lysate at 1 uM by KiNativ Profiling analysis relative to control; assay type: subcellular
T3 sequence (whole entry): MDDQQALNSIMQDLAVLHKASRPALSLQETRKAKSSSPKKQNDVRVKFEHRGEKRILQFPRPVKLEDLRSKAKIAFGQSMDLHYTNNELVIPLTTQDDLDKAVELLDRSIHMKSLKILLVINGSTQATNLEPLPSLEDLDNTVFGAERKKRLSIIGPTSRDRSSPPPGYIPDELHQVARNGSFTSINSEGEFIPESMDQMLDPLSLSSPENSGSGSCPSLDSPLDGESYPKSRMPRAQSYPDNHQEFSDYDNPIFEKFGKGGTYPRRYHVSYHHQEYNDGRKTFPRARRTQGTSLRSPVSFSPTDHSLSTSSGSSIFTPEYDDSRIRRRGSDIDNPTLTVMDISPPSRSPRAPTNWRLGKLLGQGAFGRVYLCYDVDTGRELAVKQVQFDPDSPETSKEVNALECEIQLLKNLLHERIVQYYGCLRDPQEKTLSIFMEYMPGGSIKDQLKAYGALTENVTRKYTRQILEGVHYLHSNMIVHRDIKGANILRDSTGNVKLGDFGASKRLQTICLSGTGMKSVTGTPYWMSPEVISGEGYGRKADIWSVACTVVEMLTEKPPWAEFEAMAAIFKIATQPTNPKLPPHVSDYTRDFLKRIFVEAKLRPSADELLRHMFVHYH

Serine/threonine-protein kinase WNK2 (Homo sapiens), sequence (Q9Y3S1 whole entry): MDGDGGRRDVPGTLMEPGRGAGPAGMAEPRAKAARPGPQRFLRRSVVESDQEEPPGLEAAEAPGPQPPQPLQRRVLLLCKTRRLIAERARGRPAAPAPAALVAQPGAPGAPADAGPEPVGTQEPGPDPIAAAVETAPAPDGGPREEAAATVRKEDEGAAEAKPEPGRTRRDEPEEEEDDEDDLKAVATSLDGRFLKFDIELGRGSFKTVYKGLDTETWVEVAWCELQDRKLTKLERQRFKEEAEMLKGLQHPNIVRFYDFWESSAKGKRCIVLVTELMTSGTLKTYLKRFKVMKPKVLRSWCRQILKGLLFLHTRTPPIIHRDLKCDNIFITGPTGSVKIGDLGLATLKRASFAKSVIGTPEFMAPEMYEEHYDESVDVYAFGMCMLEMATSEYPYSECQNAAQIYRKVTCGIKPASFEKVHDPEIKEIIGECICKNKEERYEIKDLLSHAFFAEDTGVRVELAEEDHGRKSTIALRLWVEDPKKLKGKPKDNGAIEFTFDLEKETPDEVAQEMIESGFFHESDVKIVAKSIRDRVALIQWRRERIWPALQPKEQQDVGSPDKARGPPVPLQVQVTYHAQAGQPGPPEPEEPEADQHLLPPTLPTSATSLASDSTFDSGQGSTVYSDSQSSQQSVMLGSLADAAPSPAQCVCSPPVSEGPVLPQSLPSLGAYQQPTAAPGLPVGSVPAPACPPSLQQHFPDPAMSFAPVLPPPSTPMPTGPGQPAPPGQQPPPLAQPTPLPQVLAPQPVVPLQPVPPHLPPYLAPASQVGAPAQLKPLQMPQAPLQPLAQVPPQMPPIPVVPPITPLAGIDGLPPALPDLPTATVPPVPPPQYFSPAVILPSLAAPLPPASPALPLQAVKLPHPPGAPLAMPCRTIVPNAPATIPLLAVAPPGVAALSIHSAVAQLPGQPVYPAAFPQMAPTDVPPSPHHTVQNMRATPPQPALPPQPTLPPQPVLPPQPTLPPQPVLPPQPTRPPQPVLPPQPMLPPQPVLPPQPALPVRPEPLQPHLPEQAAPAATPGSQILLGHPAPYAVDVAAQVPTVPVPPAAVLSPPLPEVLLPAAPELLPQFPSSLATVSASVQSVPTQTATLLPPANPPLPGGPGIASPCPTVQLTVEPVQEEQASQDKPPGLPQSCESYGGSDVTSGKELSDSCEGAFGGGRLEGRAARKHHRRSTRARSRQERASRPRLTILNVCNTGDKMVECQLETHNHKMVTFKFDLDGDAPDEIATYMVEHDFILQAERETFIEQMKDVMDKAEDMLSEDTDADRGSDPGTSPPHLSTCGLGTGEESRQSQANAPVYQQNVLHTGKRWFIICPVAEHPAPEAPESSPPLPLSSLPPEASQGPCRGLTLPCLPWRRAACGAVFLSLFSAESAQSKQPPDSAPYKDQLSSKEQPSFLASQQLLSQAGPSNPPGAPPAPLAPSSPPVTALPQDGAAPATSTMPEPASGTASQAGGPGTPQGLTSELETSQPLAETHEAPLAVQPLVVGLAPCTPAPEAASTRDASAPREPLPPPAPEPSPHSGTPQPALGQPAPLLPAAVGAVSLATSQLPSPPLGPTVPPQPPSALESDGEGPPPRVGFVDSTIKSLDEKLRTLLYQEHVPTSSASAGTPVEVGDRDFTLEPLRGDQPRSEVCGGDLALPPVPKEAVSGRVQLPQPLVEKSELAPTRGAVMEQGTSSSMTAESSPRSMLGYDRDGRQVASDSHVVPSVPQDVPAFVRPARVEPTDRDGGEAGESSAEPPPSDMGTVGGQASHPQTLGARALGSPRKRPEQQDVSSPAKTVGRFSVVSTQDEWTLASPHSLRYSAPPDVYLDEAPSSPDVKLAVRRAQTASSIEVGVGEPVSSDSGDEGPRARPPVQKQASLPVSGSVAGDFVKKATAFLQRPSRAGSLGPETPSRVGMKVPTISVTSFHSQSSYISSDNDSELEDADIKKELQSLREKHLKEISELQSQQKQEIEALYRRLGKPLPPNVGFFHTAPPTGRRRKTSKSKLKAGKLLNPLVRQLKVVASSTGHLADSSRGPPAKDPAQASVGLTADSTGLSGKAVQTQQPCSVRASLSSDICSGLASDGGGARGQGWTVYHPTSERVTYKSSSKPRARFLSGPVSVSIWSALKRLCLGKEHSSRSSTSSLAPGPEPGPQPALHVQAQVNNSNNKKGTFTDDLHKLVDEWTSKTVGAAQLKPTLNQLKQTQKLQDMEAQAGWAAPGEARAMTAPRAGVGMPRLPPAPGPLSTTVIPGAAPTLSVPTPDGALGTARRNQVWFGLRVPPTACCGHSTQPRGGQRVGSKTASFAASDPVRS
Mitogen-activated protein kinase 14, sequence (Q16539 whole entry): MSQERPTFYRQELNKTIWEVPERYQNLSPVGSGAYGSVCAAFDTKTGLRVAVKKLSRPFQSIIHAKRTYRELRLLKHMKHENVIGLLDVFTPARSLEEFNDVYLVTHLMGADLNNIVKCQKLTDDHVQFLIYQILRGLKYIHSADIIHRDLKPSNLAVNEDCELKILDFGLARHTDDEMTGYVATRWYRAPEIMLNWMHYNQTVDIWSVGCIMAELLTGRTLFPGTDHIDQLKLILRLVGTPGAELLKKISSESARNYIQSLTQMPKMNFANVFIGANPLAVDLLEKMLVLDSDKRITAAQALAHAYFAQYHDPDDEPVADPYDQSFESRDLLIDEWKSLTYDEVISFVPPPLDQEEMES
RAC-gamma serine/threonine-protein kinase (Homo sapiens), sequence (Q9Y243 whole entry): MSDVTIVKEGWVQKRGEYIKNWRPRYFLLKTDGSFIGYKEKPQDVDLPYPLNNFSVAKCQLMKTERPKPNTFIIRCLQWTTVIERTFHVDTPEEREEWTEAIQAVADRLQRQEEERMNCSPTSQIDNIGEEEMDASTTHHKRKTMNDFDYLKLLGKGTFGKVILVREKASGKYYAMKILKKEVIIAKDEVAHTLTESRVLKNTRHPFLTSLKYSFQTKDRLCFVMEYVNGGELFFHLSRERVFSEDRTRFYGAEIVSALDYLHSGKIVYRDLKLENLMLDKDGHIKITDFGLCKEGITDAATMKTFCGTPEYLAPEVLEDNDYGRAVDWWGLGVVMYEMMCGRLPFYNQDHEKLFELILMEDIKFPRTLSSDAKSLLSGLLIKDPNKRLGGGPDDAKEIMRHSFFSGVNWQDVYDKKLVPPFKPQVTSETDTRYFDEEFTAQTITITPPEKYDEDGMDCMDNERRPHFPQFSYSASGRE

Row | SMILES | inhibition [1] [%] | inhibition [2] [%] | inhibition [3] [%] | inhibition [4] | inhibition [5] [%] | inhibition [6] [%]
1 | CCN1CCN(Cc2ccc(NC(=O)c3ccc(C)c(/C=C/c4cnc5[nH]ccc5c4OC)c3)cc2C(F)(F)F)CC1 | 6.6 | -4.5 | 13.3 | – | – | –
2 | CCN1CCN(Cc2ccc(NC(=O)c3ccc(C)c(Oc4ccnc5[nH]ccc45)c3)cc2C(F)(F)F)CC1 | -5.6 | 14.4 | – | inactive | – | –
3 | CNc1cc(Oc2cc(C(=O)Nc3cc(-n4cnc(C)c4)cc(C(F)(F)F)c3)ccc2C)ncn1 | – | – | – | – | 13.4 | –
4 | CNc1cc(Oc2cc(C(=O)Nc3cc(N4CCN(C)CC4)cc(C(F)(F)F)c3)ccc2C)ncn1 | – | – | – | – | 27.1 | 11

— ChEMBL document CHEMBL5696442, “Discovery of type II inhibitors of TGFβ-activated kinase 1 (TAK1) and mitogen-activated protein kinase kinase kinase kinase 2 (MAP4K2)” (J Med Chem, 2015)
